Measurements taken from PubChem BioAssay AID1963825 (Molecular Pharmacology Branch, DTP, NCI, 2024).
pIC50: −log10 of the molar value. Several values for one entry are separate records, joined by “and”; a condition that tells them apart may be missing. Equal entries are not always repeated.

Experiment: Anticancer human tumor 997537-175-T-J1-PDC patient-derived colon adenocarcinoma cell line growth inhibition [POLQ]
Conditions: 997537-175-T-J1-PDC complex spheroid viability, combination with POLQ inhibitors; for viability, T/C: stronger effect = lower value
How it was run: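 Complex spheroid viability model combining PDC tumour cells with endothelial (HUVEC) and MSC stromal cells. Novobiocin, ART-558 or RP6685 were tested singly and in combination with standard and investigational anticancer drugs. Each was titrated in half-log steps from near clinical Cmax, or from 10 microM where Cmax was unknown.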
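Further: luminescence signal used as a surrogate for viable cells; spheroids exposed to drugs for seven days before readout.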

With `CC(C)n1c(=O)n(C)c2cnc3cc(F)c(-c4ccc(OCCCN5CCCCC5)nc4)cc3c21` + Nc1ccc(C#CCN(C(=O)Cc2ncc(C(F)(F)F)cc2C(F)(F)F)c2ccc(F)cc2)nn1 as the compound, how does the pIC50 (curve of first compound, second compound 0.0316 µM) read?
The pIC50 was under 5.00.

And the pIC50 (curve of first compound, second compound 0.1 µM)?
Its pIC50 is under 5.00.

And the pIC50 (curve of first compound, second compound 0.316 µM)?
The pIC50 was under 5.00.

What about the pIC50 (curve of first compound, second compound 1 µM) of the same compound?
The pIC50 was under 5.00.

And the pIC50 (curve of first compound, second compound 3.16 µM)?
Its pIC50 is under 5.00.

And the pIC50 (curve of first compound, second compound 10 µM)?
Its pIC50 is under 5.00.

What about the viability, T/C (second compound 0.0316 µM, first compound 0.0316 µM) of the same compound?
The viability, T/C was 96%.

And the viability, T/C (second compound 0.0316 µM, first compound 0.1 µM)?
Its viability, T/C is 107%.

What about the viability, T/C (second compound 0.0316 µM, first compound 0.316 µM) of the same compound?
The viability, T/C was 92.5%.

What about the viability, T/C (second compound 0.0316 µM, first compound 1 µM) of the same compound?
The viability, T/C was 98%.

What about the viability, T/C (second compound 0.0316 µM, first compound 3.16 µM) of the same compound?
The viability, T/C was 85.5%.

And the viability, T/C (second compound 0.0316 µM, first compound 10 µM)?
Its viability, T/C is 91.3%.

And the viability, T/C (second compound 0.1 µM, first compound 0.0316 µM)?
The viability, T/C was 98.2%.

And the viability, T/C (second compound 0.1 µM, first compound 0.1 µM)?
Its viability, T/C is 111%.

And the viability, T/C (second compound 0.1 µM, first compound 0.316 µM)?
Its viability, T/C is 113%.

What about the viability, T/C (second compound 0.1 µM, first compound 1 µM) of the same compound?
Its viability, T/C is 105%.

And the viability, T/C (second compound 0.1 µM, first compound 3.16 µM)?
Its viability, T/C is 97.2%.

What about the viability, T/C (second compound 0.1 µM, first compound 10 µM) of the same compound?
Its viability, T/C is 77.4%.

And the viability, T/C (second compound 0.316 µM, first compound 0.0316 µM)?
Its viability, T/C is 97%.

And the viability, T/C (second compound 0.316 µM, first compound 0.1 µM)?
The viability, T/C was 91.1%.

What about the viability, T/C (second compound 0.316 µM, first compound 0.316 µM) of the same compound?
Its viability, T/C is 107%.

And the viability, T/C (second compound 0.316 µM, first compound 1 µM)?
The viability, T/C was 89.9%.

And the viability, T/C (second compound 0.316 µM, first compound 3.16 µM)?
Its viability, T/C is 107%.

And the viability, T/C (second compound 0.316 µM, first compound 10 µM)?
Its viability, T/C is 90.2%.

What about the viability, T/C (second compound 1 µM, first compound 0.0316 µM) of the same compound?
The viability, T/C was 105%.

What about the viability, T/C (second compound 1 µM, first compound 0.1 µM) of the same compound?
The viability, T/C was 107%.

And the viability, T/C (second compound 1 µM, first compound 0.316 µM)?
The viability, T/C was 92.6%.

And the viability, T/C (second compound 1 µM, first compound 1 µM)?
The viability, T/C was 89.4%.

And the viability, T/C (second compound 1 µM, first compound 3.16 µM)?
Its viability, T/C is 105%.

And the viability, T/C (second compound 1 µM, first compound 10 µM)?
The viability, T/C was 107%.

What about the viability, T/C (second compound 3.16 µM, first compound 0.0316 µM) of the same compound?
Its viability, T/C is 97.3%.

And the viability, T/C (second compound 3.16 µM, first compound 0.1 µM)?
The viability, T/C was 104%.

What about the viability, T/C (second compound 3.16 µM, first compound 0.316 µM) of the same compound?
Its viability, T/C is 104%.

What about the viability, T/C (second compound 3.16 µM, first compound 1 µM) of the same compound?
Its viability, T/C is 83.3%.

And the viability, T/C (second compound 3.16 µM, first compound 3.16 µM)?
Its viability, T/C is 97.8%.

And the viability, T/C (second compound 3.16 µM, first compound 10 µM)?
Its viability, T/C is 98.7%.

And the viability, T/C (second compound 10 µM, first compound 0.0316 µM)?
The viability, T/C was 102%.

What about the viability, T/C (second compound 10 µM, first compound 0.1 µM) of the same compound?
The viability, T/C was 103%.

And the viability, T/C (second compound 10 µM, first compound 0.316 µM)?
The viability, T/C was 97.8%.

What about the viability, T/C (second compound 10 µM, first compound 1 µM) of the same compound?
The viability, T/C was 101%.

And the viability, T/C (second compound 10 µM, first compound 3.16 µM)?
The viability, T/C was 96.2%.

What about the viability, T/C (second compound 10 µM, first compound 10 µM) of the same compound?
Its viability, T/C is 81.5%.

For `COc1cc2cc(C(=O)CCC(=O)O)sc2cc1OC`, which viability, T/C (compound 0.0316 µM) is on record?
Its viability, T/C is 102% and 105% and 95.7%.

What about the viability, T/C (compound 0.1 µM) of the same compound?
The viability, T/C was 99% and 93.1% and 94.9%.

What about the viability, T/C (compound 0.316 µM) of the same compound?
Its viability, T/C is 85.6% and 113% and 104%.

And the viability, T/C (compound 1 µM)?
Its viability, T/C is 107% and 89.6% and 100%.

And the viability, T/C (compound 3.16 µM)?
Its viability, T/C is 106% and 100% and 91.6%.

What about the viability, T/C (compound 10 µM) of the same compound?
Its viability, T/C is 98.2% and 83.3% and 99.8%.

And the pIC50 (curve of compound)?
Its pIC50 is under 5.00.
